# PubChem BioAssay (NCI)
# “And” between values parts separate entries of the source, which are not always exact repeats. Equal entries are not always repeated.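 All cell lines were grown in 96-well plates and treated with compound for 48 hours. At the GI50, growth is halved. The concentration for full growth arrest is given as TGI.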
# Tests used:
# Assay in all cases: inhibition of tumour cell growth, NCI panel, 48 h
# CAKI-1 renal = test system: CAKI-1 renal
# DU-145 prostate = test system: DU-145 prostate
# HCC-2998 colon = test system: HCC-2998 colon
# HS 578T breast = test system: HS 578T breast
# KM12 colon = test system: KM12 colon
# OVCAR-4 ovarian = test system: OVCAR-4 ovarian
# PC-3 prostate = test system: PC-3 prostate
# RXF 393 renal = test system: RXF 393 renal
# SK-MEL-28 melanoma = test system: SK-MEL-28 melanoma
# TK-10 renal = test system: TK-10 renal
Structure (SMILES),GI50 (CAKI-1 renal) [µM],TGI (CAKI-1 renal),GI50 (DU-145 prostate) [µM],TGI (DU-145 prostate),GI50 (HCC-2998 colon),TGI (HCC-2998 colon),GI50 (HS 578T breast) [µM],TGI (HS 578T breast),GI50 (KM12 colon) [µM],TGI (KM12 colon),GI50 (OVCAR-4 ovarian),TGI (OVCAR-4 ovarian),GI50 (PC-3 prostate) [µM],TGI (PC-3 prostate),GI50 (RXF 393 renal),TGI (RXF 393 renal),GI50 (SK-MEL-28 melanoma) [µM],TGI (SK-MEL-28 melanoma),GI50 (TK-10 renal) [µM],TGI (TK-10 renal)
COc1cccc(NC(=O)c2ccc(NC3=C(Cl)C(=O)N(Cc4ccccc4)C3=O)cc2)c1,15.3,30.9 µM,19,38.6 µM,17 µM,30.6 µM,11.1,30.9 µM,16.9,40.3 µM,22 µM,> 100 µM,13.1,28.5 µM,2.09 µM,14.9 µM,11.5,28 µM,20.3,55 µM
C[C@H](C(O)CC(=O)C(C)(C)O)[C@H]1CC[C@@]2(C)[C@@H]3CC[C@H]4C(C)(C)[C@@H](OC5OC(COC6OC(CO)C(O)C(O)C6O)C(O)C(O)C5O)CC[C@]4(C)C3=CC[C@]12C (some centres undefined),,> 100 µM,,> 100 µM,,> 100 µM,,> 100 µM,,> 100 µM,,> 100 µM,,> 100 µM,,> 100 µM,,> 100 µM,,> 100 µM
O=C1CCC(N2C(=O)c3cccc(NCCOCCOCCNC(=O)c4cc5c(o4)C(=O)c4ccccc4C5=O)c3C2=O)C(=O)N1 (centres undefined),2.91,10.1 µM,1.82,3.25 µM,1.89 µM,3.57 µM,2.4,7.76 µM,3.19,10.9 µM,1.29 µM,2.57 µM,2.42,15.1 µM,1.67 µM,3.21 µM,1.92,3.9 µM,3.81,9.08 µM
CN1CCN(c2ccc(-c3cccc(CN4CCOCC4)c3)cc2NC(=O)c2c[nH]c(=O)cc2C(F)(F)F)CC1,,,62.5,> 100 µM,> 100 µM,> 100 µM,44.8,> 100 µM,46.8,> 100 µM,55.9 µM,> 100 µM,32.3,> 100 µM,23.1 µM,> 100 µM,37.1,> 100 µM,68.7,> 100 µM
COc1ccc(C[C@H]2NC[C@H](O)[C@H]2OC(C)=O)cc1,,0.06 µM,,0.27 µM,,0.0862 µM,,0.0604 µM,,0.211 µM,,0.194 µM,,0.49 µM,,0.399 µM,,0.351 µM,,0.397 µM
Cc1ccc2c(c1)-c1oc(=O)c(-c3cc4ccccc4oc3=O)cc1C(O)O2 (centres undefined),20.5,46.7 µM,11.6,23.8 µM,18.5 µM,36.2 µM,24,47.7 µM,19.6,48.3 µM,36.3 µM,> 100 µM,45.2,> 100 µM,12.8 µM,48.2 µM,30.2,75.2 µM,16.3,34.9 µM
Clc1ccc(COC(Cn2ccnc2)c2ccc(Cl)cc2Cl)c(Cl)c1 (centres undefined),3.18,12.9 µM and 26.8 µM and 23.4 µM,11.3,23.5 µM and 29.6 µM and 25.6 µM,3.78 µM,14.9 µM and 35.6 µM and 26.3 µM,5.49,24 µM and 32 µM,4.36,15.5 µM and 26.4 µM and 28.8 µM,2.91 µM,18.4 µM and 23.3 µM and 25.7 µM,3.07,13.8 µM and 20.6 µM and 20.3 µM,2.78 µM and 12.1 µM and 3.84 µM,10.5 µM and 26 µM and 14.5 µM,4.96,17.8 µM and 34.2 µM and 26 µM,10.7,22.9 µM and 29.6 µM
CCN(CC)CCOc1ccc(Cc2ccccc2)cc1,29.5,> 100 µM,32.7,> 100 µM,38.7 µM,> 100 µM,13.6,52.4 µM,25.6,> 100 µM,33.5 µM,> 100 µM,26.2,> 100 µM,24.8 µM,88.8 µM,38.5,> 100 µM,23.3,92.9 µM
C[C@@H]1OC(=O)NN=C1c1ccc(-c2ccc(F)cc2)c(C(F)(F)F)c1,4.88,18.7 µM,1.57,20.7 µM,10.6 µM,23.1 µM,,3.37 µM,5.95,19.5 µM,6.36 µM,20.6 µM,10.5,26.8 µM,1.58 µM,7.62 µM,10.5,22.6 µM,1.65,19.6 µM
Clc1nc(-c2ccccc2)nc(Cl)c1Cl,,8.62 µM,,29.9 µM,,20.5 µM,,47.3 µM,,25.3 µM,,38.9 µM,,24.6 µM,,18.9 µM,,31.6 µM,,42.6 µM
COC(=O)CCCNC(=O)C(=O)c1c(O)c(O)c(C(C)C)c2cc(C)c(-c3c(C)cc4c(C(C)C)c(O)c(O)c(C(=O)C(=O)NCCCC(=O)OC)c4c3O)c(O)c12,1.51,> 32.5 µM,0.556,3.74 µM,0.679 µM,7.98 µM,0.975,11.6 µM,0.164,4.58 µM,0.23 µM,27 µM,0.258,8.65 µM,0.651 µM,5 µM,1.1,6.92 µM,0.34,2.73 µM
COc1ccccc1N1CCN(CCCOc2ccc(C(=O)/C=C3/C(=O)Nc4ccccc43)cc2)CC1,15.5,> 62.8 µM,15,38.1 µM,13.9 µM,32 µM,22.5,> 52.7 µM,8.2,24.8 µM,6.6 µM,51.2 µM,12,> 100 µM,11.2 µM,27.5 µM,14.6,33.4 µM,12.3,> 67.7 µM
CCN(CC)c1ccc(/C=N/NC(=O)c2ccccc2Nc2ccnc(C(F)(F)F)c2)c(O)c1,0.0577,0.387 µM,0.134,> 100 µM,0.192 µM,> 100 µM,1.11,> 51.6 µM,0.268,> 100 µM,0.0856 µM,> 100 µM,0.997,> 100 µM,0.226 µM,> 24.6 µM,0.243,> 100 µM,0.365,> 67.4 µM
CCCC(=O)Nc1c(I)cc(I)c(CC(CC)C(=O)O)c1I (centres undefined),> 100,> 100 µM,> 100,> 100 µM,> 100 µM,> 100 µM,> 100,> 100 µM,> 100,> 100 µM,> 100 µM,> 100 µM,> 100,> 100 µM,> 100 µM,> 100 µM,> 100,> 100 µM,> 100,> 100 µM
COc1cc2c(cc1OC)-c1ncc3cc(OC)c(OC)c(OC)c3c1C2,20.5,86.1 µM,21.7,> 100 µM,26 µM,95.8 µM,4.11,27.2 µM,17.9,95.1 µM,62.6 µM,> 100 µM,17.1,> 100 µM,23.2 µM,85.8 µM,46.7,> 100 µM,27.7,> 100 µM
COC1C(O)CC(OC2CC(OC3CC(O[C@@H]4C(=O)c5c(cc6cc(OC7CC(OC8CC(O)C(O)C(C)O8)C(O)C(C)O7)c(C)c(O)c6c5O)CC4[C@H](OC)[C@@H](O)C(C)=O)OC(C)C3O)OC(C)C2O)OC1C (some centres undefined),0.749,> 33.3 µM,0.0127,> 33.3 µM,0.00349 µM,0.0258 µM,0.0307,> 33.3 µM,0.0124,> 33.3 µM,< 0.0282 µM,> 23.9 µM,0.0243,> 33.3 µM,0.0152 µM,0.364 µM,0.014,0.396 µM,0.0257,> 33.3 µM
O=S(=O)(NCCNc1cc(-c2cn(-c3ccccc3)nc2-c2cccc(O)c2)ccn1)c1ccc(Br)cc1,3.42,20.4 µM,3.02,11.6 µM,2.14 µM,4.1 µM,2.35,7.71 µM,2.59,7.95 µM,2.32 µM,13.7 µM,2.07,6.41 µM,2.38 µM,6.96 µM,2.09,4.78 µM,2.78,9.65 µM
NC(Cc1c[nH]c2cc(F)ccc12)C(=O)O (centres undefined),,> 2500 µM,903,> 2500 µM,1640 µM,> 2500 µM,1780,> 2500 µM,1180,> 2500 µM,> 2500 µM,> 2500 µM,1810,> 2500 µM,1450 µM,> 2500 µM,1150,> 2500 µM,> 2500,> 2500 µM
CC(=Nc1ccccc1)C1=C(O)C(Cc2ccc(F)cc2)NC1=O (centres undefined),2.9,> 100 µM,2.12,> 100 µM,1.73 µM,40.1 µM,2.44,> 100 µM,0.4,> 100 µM,14.4 µM,> 100 µM,0.894,> 100 µM,0.339 µM,1.74 µM,2.63,> 100 µM,2.1,> 100 µM
Cc1ccc(-n2c3c(c4c(CN)c(O)ccc42)CCc2ccccc2C3=O)cc1,13,26.6 µM,17.7,41.7 µM,4.05 µM,15.6 µM,0.456,5.03 µM,13.2,29.1 µM,20.8 µM,46 µM,4.77,19.3 µM,17 µM,36.7 µM,23.4,69.4 µM,13.3,26.3 µM
CNC(=S)N(C1CCCCC1)C1CCCCC1,,> 100 µM,,> 100 µM,,> 100 µM,,98.8 µM,,> 100 µM,,> 100 µM,,> 100 µM,,> 100 µM,,> 100 µM,,> 100 µM
CN(C)C1C(=O)C(C(N)=O)=C(O)C2(O)C(=O)C3=C(O)c4c(O)cccc4C(C)(O)C3CC12 (centres undefined),,> 100 µM,,> 100 µM,> 100 µM and 42.7 µM,> 100 µM,,> 100 µM,,> 100 µM,31 µM and > 100 µM,75 µM and > 100 µM,,> 100 µM,,87.5 µM and > 100 µM,,> 100 µM,,> 100 µM
CCN(CC)CCC(=O)N1C/C(=C/c2ccccc2)C(=O)/C(=C\c2ccccc2)C1,,5.08 µM,,12.5 µM,,1.94 µM,,2.21 µM,,2.51 µM,,6.04 µM,,2.9 µM,,2.99 µM,,4.16 µM,,18.4 µM
O=C(Nc1ccc(-n2ccc3c(NC(=O)c4ccccc4)nccc32)cc1)c1ccc(N2CCOCC2)c(C(F)(F)F)c1,0.0565,15.7 µM,0.105,> 87.6 µM,0.6 µM,> 53 µM,1.81,> 76.5 µM,0.0707,18 µM,7.09 µM,> 60.8 µM,1.02,52.5 µM,0.194 µM,1.48 µM,0.275,> 47.4 µM,0.449,26.1 µM
CCCc1n(Cc2ccc3ccccc3n2)cc[n+]1Cc1ccc2ccccc2c1,,,1.52,12.8 µM,0.564 µM,2.33 µM,2.13,9.42 µM,0.626,2.5 µM,0.357 µM,6.59 µM,0.487,4.96 µM,2.98 µM,14.6 µM,1.24,6.23 µM,1.21,2.81 µM
CCCCCCCCCCCCC(NC(C)=O)(C(=O)OCC)C(=O)OCC,10.6,27.4 µM,15.1,28.6 µM,12.5 µM,26.2 µM,14,45.8 µM,11.1,28.9 µM,10.4 µM,22.2 µM,7.03,21.1 µM,13.7 µM,27 µM,13.5,26.9 µM,,
